pIC50: −log10 of the molar value.
Tests used:
[1] = test system: HCT-116 isogenic p53-knock-out subline; test: MTT assay, 96 h; type: cell-based, human; details: read-out: IC50 HCT-116p53ko, mean
Excerpt: The oncosuppressor protein p53 controls the cellular response to DNA strand breaks induced by cytotoxic drugs or by radiation.[58] The p53 protein may enhance cell chemosensitivity by promoting apoptosis via different mechanisms including activation of proapoptotic genes such as bax and repression of antiapoptotic genes such as bcl-2 or in contrast increase chemoresistance by promoting p21-mediated and p21-independent growth arrest and DNA repair and by activation of antiapoptotic genes such as bcl-x. There is strong evidence that the modulation of drug sensitivity by p53 may be both drug- and cell type-specific.[59] […] Accordingly, essential differences in chemosensitivity were observed between cells with wild-type p53 gene and cells with knocked out p53 gene by homologous recombination.[60]
Human colonic adenocarcinoma cell lines Colo 205 doxorubicin-sensitive (ATCC-CCL-222) and Colo 320/MDR-LRP multidrug resistant over-expressing ABCB1 (MDR1)-LRP (ATCC-CCL-220.1) were purchased from LGC Promochem, Teddington, UK. The cells were cultured in an RPMI 1640 medium supplemented with 10% heat-inactivated fetal bovine serum, 2 mM L-glutamine, 1 mM Na-pyruvate, and 10 mM HEPES. The semi-adherent human colon cancer cells were detached with Trypsin-Versene (EDTA) solution for 5 min at 37 °C. An MRC-5 human embryonal lung fibroblast cell line (ATCC CCL-171) was purchased from LGC Promochem, Teddington, UK. The cells were cultured in Eagle’s minimal essential medium (EMEM, containing 4.5 g L^–1 glucose) supplemented with a non-essential amino acid mixture, a selection of vitamins, and 10% heat-inactivated fetal bovine serum. The HCT-116 colon carcinoma cells and isogenic p53-knock-out subline were a gift of Prof. Bert Vogelstein from The Johns Hopkins Oncology Center. Cells were cultured in McCoy’s 5A medium supplemented with 10% heat-inactivated fetal bovine serum and 4 mM L-glutamine. All cell lines were incubated at 37 °C, in a 5% CO2, 95% air atmosphere.
MRC-5 non-cancerous human embryonic lung fibroblast and human colonic adeno-carcinoma cell lines (doxorubicin-sensitive Colo 205 and multidrug resistant Colo 320 colonic adenocarcinoma cells) were used to determine the effect of compounds on cell growth. The effects of increasing concentrations of compounds on cell growth were tested in 96-well flat-bottomed microtiter plates. The compounds were dissolved in DMSO and stock solutions of 10 mM were prepared. These were further diluted in the appropriate cell culture medium by twofold serial dilution starting from 100 or 10 μM for the compounds. The adherent human embryonal lung fibroblast cells were cultured in 96-well flat-bottomed microtiter plates using EMEM supplemented with 10% heat-inactivated fetal bovine serum. The density of the cells was adjusted to 1 × 10^4 cells in 100 μL per well, the cells were seeded for 24 h at 37 °C, 5% CO2, then the medium was removed from the plates containing the cells, and the dilutions of compounds previously made in a separate plate were added to the cells in 200 μL. In the case of the colonic adenocarcinoma cells, the twofold serial dilutions of compounds were prepared in 100 μL of RPMI 1640, horizontally. The semi-adherent colonic adenocarcinoma cells were treated with Trypsin-Versene (EDTA) solution. They were adjusted to a density of 1 × 10^4 cells in 100 μL of RPMI 1640 medium and were added to each well, with the exception of the medium control wells. […]

SYK = SYK (Homo sapiens, UniProt P43405); test: Kinase panel screen; type: biochemical; details: 10 µM compound
Excerpt: (§1) Figure 7 (see also Table S4) summarizes the results of this assay as a histogram plotting the percentage of the remaining enzyme activity (x-axis) as a function of added lead compound (HL^8: blue trace, 8: red trace) for each of the 50 enzymes assayed (y-axis). […] Thus, the coordination to copper(II) completely changes the kinase inhibition profile of HL^8.
(§2) Figure 7 Screening of HL^8 and 8 against 50 enzymes: histogram with % remaining activity on the x-axis plotted against the compound identifier (blue trace: HL^8 and red trace: 8) and enzyme identifier on the […]. The screen was carried out at a compound concentration of 10 μM, an enzyme concentration of 50 nM, and an ATP concentration of 100 μM.
(§3) All kinase assays were carried out using Multidrop 384’s at room temperature in a total assay volume of 25.5 μL. To plates containing 0.5 μL of HL^8 and 8, DMSO control or acid blank […], 15 μL of an enzyme mix containing enzyme […], and excess peptide/protein substrate in buffer was added. Compounds were pre-incubated in the presence of the enzyme and peptide/protein substrate for 5 min before initiation of the reaction by addition of 10 μL of ATP (final concentration selected for each kinase at 5, 20, or 50 μM). Assays were carried out for 30 min at room temperature before termination by the addition of 5 μL of orthophosphoric acid. The assay plates were then harvested onto P81 Unifilter Plates by a PerkinElmer Harvester and air dried. The dry Unifilter plates were then sealed on the addition of MicroScint O and were counted in PerkinElmer Topcount scintillation counters.

TBK1 = TBK1 (Homo sapiens, UniProt Q9UHD2); test: Kinase panel screen; type: biochemical; details: 10 µM compound
Excerpt: as §1, §2, §3

PLK1 = PLK1 (Homo sapiens, UniProt P53350); test: Kinase panel screen; type: biochemical; details: 10 µM compound
Excerpt: as §1, §2, §3

TTK = TTK (Homo sapiens, UniProt P33981); test: Kinase panel screen; type: biochemical; details: 10 µM compound
Excerpt: as §1, §2, §3

DYRK1A = DYRK1A (Homo sapiens, UniProt Q13627); test: Kinase panel screen; type: biochemical; details: 10 µM compound
Excerpt: as §1, §2, §3

Src = Src (Homo sapiens, UniProt P12931); test: Kinase panel screen; type: biochemical; details: 10 µM compound
Excerpt: as §1, §2, §3

S6K1 = S6K1 (Homo sapiens, UniProt P23443); test: Kinase panel screen; type: biochemical; details: 10 µM compound
Excerpt: as §1, §2, §3

CK2 = CK2 (Homo sapiens, UniProt P68400); test: Kinase panel screen; type: biochemical; details: 10 µM compound
Excerpt: as §1, §2, §3

PKCa = PKCa (Homo sapiens, UniProt P17252); test: Kinase panel screen; type: biochemical; details: 10 µM compound
Excerpt: as §1, §2, §3

GSK3β = GSK3β (Homo sapiens, UniProt P49841); test: Kinase panel screen and IC50; type: biochemical
Excerpt: as §1, §2
Both compounds were screened against the respective enzymes, and IC50 values were determined.
as §3
IC50 values were determined by the International Centre for Kinase Profiling at the University of Dundee according to standard protocols published elsewhere.[109],[110]

Sequence of GSK3β (P49841 whole entry): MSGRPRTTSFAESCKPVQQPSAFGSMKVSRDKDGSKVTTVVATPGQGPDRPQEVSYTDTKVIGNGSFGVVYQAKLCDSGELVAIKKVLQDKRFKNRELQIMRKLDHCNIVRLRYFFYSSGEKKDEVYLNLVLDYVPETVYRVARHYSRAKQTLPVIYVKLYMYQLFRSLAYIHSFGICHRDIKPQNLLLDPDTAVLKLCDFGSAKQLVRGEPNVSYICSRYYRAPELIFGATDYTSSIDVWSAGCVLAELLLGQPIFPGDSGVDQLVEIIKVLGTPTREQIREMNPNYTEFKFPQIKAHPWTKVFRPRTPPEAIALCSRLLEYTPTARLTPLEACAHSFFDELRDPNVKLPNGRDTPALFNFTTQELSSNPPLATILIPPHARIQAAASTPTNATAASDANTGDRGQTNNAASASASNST
Sequence of Src (P12931 whole entry): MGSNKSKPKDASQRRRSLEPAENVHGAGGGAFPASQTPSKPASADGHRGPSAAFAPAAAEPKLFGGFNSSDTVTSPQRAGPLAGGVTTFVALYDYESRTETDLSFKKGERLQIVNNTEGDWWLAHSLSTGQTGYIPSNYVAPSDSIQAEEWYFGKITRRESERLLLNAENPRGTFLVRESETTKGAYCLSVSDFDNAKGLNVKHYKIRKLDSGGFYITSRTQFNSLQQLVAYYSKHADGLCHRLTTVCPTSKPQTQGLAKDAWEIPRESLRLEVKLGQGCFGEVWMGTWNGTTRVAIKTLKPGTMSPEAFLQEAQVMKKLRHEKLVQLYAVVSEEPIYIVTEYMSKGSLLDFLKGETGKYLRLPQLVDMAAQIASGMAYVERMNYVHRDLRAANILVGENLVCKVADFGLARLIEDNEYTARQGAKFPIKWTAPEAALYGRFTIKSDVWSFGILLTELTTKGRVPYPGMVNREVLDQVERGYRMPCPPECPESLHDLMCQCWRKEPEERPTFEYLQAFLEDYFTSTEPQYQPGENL
Sequence of PLK1 (P53350 whole entry): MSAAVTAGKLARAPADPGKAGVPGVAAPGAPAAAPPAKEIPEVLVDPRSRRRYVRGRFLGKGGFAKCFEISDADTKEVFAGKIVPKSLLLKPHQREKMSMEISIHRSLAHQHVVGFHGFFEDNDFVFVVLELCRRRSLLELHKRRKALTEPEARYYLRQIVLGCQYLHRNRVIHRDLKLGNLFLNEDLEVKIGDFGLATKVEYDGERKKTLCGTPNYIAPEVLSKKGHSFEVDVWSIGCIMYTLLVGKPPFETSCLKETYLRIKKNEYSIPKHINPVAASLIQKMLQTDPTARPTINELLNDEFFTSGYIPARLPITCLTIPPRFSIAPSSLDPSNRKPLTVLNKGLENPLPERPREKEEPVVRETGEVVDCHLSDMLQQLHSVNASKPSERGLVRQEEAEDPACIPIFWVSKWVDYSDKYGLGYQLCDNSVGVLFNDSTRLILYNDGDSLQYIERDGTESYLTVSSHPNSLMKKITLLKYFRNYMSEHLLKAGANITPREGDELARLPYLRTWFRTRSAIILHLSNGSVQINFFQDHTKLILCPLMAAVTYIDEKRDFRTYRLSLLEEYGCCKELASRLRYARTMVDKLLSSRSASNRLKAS
Sequence of TBK1 (Q9UHD2 whole entry): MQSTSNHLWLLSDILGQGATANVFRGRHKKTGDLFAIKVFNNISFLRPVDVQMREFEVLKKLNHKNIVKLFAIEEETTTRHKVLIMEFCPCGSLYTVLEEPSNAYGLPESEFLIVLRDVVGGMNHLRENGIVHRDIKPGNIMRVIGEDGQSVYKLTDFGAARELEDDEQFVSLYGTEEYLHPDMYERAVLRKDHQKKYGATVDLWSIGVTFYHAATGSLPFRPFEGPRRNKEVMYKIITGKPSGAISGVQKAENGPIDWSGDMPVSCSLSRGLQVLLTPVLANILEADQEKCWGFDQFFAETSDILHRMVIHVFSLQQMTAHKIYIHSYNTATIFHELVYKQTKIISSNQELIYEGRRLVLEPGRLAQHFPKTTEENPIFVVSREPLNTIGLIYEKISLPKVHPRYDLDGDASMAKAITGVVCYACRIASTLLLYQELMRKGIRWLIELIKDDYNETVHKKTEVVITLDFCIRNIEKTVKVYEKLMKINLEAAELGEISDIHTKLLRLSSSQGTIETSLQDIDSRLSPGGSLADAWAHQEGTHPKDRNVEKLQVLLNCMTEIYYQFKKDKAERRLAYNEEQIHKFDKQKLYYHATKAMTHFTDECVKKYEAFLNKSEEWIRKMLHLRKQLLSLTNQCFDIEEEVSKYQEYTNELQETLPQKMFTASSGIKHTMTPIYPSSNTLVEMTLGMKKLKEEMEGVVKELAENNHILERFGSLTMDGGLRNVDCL
Sequence of CK2 (P68400 whole entry): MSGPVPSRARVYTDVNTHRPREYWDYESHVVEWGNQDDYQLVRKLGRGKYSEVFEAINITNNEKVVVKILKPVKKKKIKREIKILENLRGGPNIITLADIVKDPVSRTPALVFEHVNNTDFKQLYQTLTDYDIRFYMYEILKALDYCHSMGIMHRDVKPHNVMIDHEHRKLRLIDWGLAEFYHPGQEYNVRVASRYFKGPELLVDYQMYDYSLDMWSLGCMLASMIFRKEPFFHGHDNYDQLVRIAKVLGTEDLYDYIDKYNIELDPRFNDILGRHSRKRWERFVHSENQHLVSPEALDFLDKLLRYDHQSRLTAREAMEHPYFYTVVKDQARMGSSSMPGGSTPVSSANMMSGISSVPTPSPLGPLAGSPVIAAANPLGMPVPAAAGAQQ
Sequence of S6K1 (P23443 whole entry): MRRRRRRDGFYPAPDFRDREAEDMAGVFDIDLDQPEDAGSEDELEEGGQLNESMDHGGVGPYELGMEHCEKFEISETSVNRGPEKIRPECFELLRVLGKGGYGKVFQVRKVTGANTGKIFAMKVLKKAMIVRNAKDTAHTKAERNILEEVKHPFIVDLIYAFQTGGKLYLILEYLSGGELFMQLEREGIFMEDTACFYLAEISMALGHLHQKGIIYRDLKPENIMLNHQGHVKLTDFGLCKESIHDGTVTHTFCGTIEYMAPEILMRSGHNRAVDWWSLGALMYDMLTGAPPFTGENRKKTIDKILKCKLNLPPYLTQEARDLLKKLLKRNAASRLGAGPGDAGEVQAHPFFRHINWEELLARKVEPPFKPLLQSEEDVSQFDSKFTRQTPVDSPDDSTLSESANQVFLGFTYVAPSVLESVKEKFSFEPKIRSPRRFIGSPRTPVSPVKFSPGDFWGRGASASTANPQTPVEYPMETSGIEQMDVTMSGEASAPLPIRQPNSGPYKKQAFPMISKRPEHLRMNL
Sequence of TTK (P33981 whole entry): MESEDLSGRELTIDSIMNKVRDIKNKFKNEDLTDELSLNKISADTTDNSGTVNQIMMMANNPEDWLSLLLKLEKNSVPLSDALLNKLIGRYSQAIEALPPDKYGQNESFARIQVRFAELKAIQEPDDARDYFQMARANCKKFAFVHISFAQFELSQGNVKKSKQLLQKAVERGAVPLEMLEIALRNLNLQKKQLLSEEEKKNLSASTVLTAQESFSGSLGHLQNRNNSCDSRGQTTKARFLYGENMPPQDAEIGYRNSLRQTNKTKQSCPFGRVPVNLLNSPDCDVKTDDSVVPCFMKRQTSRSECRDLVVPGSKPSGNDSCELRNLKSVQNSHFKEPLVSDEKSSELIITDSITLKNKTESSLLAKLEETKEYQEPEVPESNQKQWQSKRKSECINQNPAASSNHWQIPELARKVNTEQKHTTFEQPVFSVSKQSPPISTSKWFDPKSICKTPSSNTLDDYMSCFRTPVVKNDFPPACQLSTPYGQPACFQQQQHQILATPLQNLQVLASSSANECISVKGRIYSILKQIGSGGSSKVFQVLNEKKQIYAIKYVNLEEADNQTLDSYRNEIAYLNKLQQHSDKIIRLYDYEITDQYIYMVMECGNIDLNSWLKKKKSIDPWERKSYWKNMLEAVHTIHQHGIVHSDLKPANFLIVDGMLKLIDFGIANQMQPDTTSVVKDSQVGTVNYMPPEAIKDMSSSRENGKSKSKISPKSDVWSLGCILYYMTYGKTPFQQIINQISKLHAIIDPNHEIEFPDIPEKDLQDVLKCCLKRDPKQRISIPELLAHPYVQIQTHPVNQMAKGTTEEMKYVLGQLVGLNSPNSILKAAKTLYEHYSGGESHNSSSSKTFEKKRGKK

CC(=NNc1nc2ccccc2c2c1[nH]c1ccc(Br)cc12)c1ccc(CN2CCOCC2)cn1.[Cl][Cu][Cl] [compound 8, CuCl2(HL^8)·H2O]
pIC50 [1]: 7.39 | % remaining activity (SYK): 39% | % remaining activity (TBK1): 76% | % remaining activity (PLK1): 90% | % remaining activity (TTK): 64% | % remaining activity (DYRK1A): 77% | % remaining activity (Src): 125% | % remaining activity (S6K1): 109% | % remaining activity (CK2): 79% | % remaining activity (PKCa): 80% | % remaining activity (GSK3β; GSK3β, 10 µM compound): 32% | pIC50 (GSK3β; read-out: IC50 against GSK3β): 5.79

Source: publication PMC8842277, “Highly Antiproliferative Latonduine and Indolo[2,3-c]quinoline Derivatives: Complex Formation with Copper(II) Markedly Changes the Kinase Inhibitory Profile” (Journal of Medicinal Chemistry, 2022)
